# Values of other authors in patent US6465194B2, “Monoclonal antibodies to 4,4′-dinitrocarbanilide and a method for analyzing for the drug nicarbazin” (The United States of America as represented by the …, priority 1999, dated 2002).
# Columns and labels:
# [1] = chickens; Porter and Gilfilan, 1955
# Eimeria tenella = details: Cuckler et al., 1955
compound,measurement,setting,value
"O=C(Nc1ccc([N+](=O)[O-])cc1)Nc1ccc([N+](=O)[O-])cc1 [DNC, 4,4′-dinitrocarbanilide]",excretion rate,[1],more slowly than HDP
Cc1cc(C)nc(O)n1.O=C(Nc1ccc([N+](=O)[O-])cc1)Nc1ccc([N+](=O)[O-])cc1 [DNC-HDP],potency in the control of Eimeria tenella relative to DNC by itself,Eimeria tenella; complex versus DNC alone,ten
"Cc1cc(C)nc(O)n1 [HDP, 2-hydroxy-4,6-dimethylpyrimidine]",anticoccidial activity,Eimeria tenella; used alone,no anticoccidial activity
